Bridge positions count the residues as written; N and C are the ends. Peptide text beside a SMILES is read from it.
What was measured:
S. aureus 502a = test: Cell-suspension microbicidal assay (MMC); assay type: cell-based, Staphylococcus aureus; details: lowest concentration that reduced cell viability by 99.9%; 10 mM PIPES, 5 mM glucose, pH 7.4; 2 h 37° C.
In short: (§1)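 Log-phase microbes (2×10^6 CFU/ml) exposed to two-fold peptide dilutions (0.062-8.0 μg/ml) in 10 mM PIPES, 5 mM glucose, pH 7.4, 2 h at 37 °C, then diluted 1:10 to 1:10^6 in broth and grown 24-48 h. MMC is the lowest concentration giving ≥99.9% killing (no pellet at 1:10^3).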

[1] = target: T1, recombinant β-galactosidase (Escherichia coli, UniProt P00722); test: Inhibition of purified β-galactosidase (ONPG hydrolysis); assay type: biochemical; details: 4 μg/ml, the highest peptide concentration tested; 10 nM enzyme
T1 construct: gift from Dr. Donald P. Satchell, University of California, Irvine, Department of Pathology
T1 sequence (P00722 2-1024): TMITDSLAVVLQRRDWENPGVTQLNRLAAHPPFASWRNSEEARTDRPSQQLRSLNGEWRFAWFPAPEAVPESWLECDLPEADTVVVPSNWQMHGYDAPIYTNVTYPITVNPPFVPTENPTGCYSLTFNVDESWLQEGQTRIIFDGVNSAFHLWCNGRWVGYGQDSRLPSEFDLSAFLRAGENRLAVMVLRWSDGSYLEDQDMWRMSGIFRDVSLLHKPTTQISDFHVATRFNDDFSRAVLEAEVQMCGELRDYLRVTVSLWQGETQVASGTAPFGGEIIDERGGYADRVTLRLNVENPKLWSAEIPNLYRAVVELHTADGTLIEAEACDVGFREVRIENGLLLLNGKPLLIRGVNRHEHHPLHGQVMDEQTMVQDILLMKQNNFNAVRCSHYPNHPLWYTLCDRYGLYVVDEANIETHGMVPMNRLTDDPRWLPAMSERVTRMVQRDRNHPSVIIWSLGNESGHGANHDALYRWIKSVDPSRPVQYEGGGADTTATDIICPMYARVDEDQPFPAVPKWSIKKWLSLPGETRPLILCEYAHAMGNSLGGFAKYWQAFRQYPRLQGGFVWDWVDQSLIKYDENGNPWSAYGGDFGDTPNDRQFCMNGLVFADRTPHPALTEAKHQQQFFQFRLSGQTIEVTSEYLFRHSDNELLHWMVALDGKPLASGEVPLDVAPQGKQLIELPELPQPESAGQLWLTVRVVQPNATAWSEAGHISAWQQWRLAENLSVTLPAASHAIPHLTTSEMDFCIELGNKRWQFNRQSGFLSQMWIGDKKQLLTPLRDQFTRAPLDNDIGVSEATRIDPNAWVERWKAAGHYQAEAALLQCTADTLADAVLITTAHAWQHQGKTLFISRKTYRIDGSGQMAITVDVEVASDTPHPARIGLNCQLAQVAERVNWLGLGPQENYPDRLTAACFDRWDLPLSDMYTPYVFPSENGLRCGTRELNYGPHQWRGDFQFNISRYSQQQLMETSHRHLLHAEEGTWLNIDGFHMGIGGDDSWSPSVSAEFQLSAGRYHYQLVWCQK
Protocol: Dose-dependent rates of ONPG hydrolysis were determined using 10 nM of purified β-galactosidase.
The effect of each peptide on β-galactosidase-dependent ONPG hydrolysis was determined by incubating 0-4 μg/ml of each peptide with recombinant β-galactosidase (a gift from Dr. Donald P. Satchell, University of California, Irvine, Department of Pathology) and 3 mM ONPG as described above.

C. albicans 16820 = test: Cell-suspension microbicidal assay (MMC); assay type: cell-based, Candida albicans; details: lowest concentration that reduced cell viability by 99.9%; 10 mM PIPES, 5 mM glucose, pH 7.4; 2 h 37° C.
In short: as §1

[2] = tested on: S. aureus 502a, E. coli ML35, and C. albicans 16820; test: Cell-suspension microbicidal assay, statements across the test organisms (lowest MMC, overall ranges); assay type: cell-based
In short: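 Log-phase organisms (2×10^6 CFU/ml) were exposed for 2 h at 37° C. to peptide (0.062–8.0 μg/ml final) in 10 mM PIPES/5 mM glucose, pH 7.4, then serially diluted in broth and grown 24–48 h. MMC was defined as ≥99.9% killing (no pellet at 1:10^3). SI was calculated as concentration giving 3% hemolysis in PBS divided by lowest MMC.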

E. coli ML35 [3] = test: Membrane permeabilization assay (ONPG hydrolysis); assay type: cell-based, Escherichia coli; details: rates at 1 μg/ml concentration of each peptide
In short: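 ONPG hydrolysis by log-phase E. coli ML35 (1×10^6 CFU/ml) in 10 mM PIPES pH 7.4 with 3 mM ONPG, peptides at 0-8.0 μg/ml final; A405 followed for 60 min. Control: 0-4 μg/ml peptide incubated with recombinant β-galactosidase and 3 mM ONPG.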

E. coli ML35 [4] = test: Cell-suspension microbicidal assay (MMC); assay type: cell-based, Escherichia coli; details: lowest concentration that reduced cell viability by 99.9%; 10 mM PIPES, 5 mM glucose, pH 7.4; 2 h 37° C.
In short: as §1

E. coli ML35 [5] = test: Agar diffusion assay; assay type: cell-based, Escherichia coli; details: diameter of clearing, FIG. 3
Protocol: Briefly, 10-μl wells were bored in a 9-cm^2 plate of agarose, buffered with 10 mM 1,4-piperazinebis(ethanesulfonic acid) (PIPES), pH 7.4, containing 5 mM glucose, and seeded with 1×10^6 mid-log phase cells. Five-μl aliquots of peptides, dissolved in 0.01% HOAc at 10-300 μg/ml, were added to each well. After incubation at 37° C. for 2 h, the seeded agar was overlaid with molten agarose containing 6% trypticase soy broth (for bacteria) or Sabouraud dextrose broth (for fungi). Plates were incubated at 37° C. for 18-24 h, and antimicrobial activity was determined by measuring the diameter of clearing around each well.

E. coli ML35 [6] = test: Microbicidal assay by colony counting (Example I); assay type: cell-based, Escherichia coli
Protocol: The limit of detection (1 colony per plate) was equal to 1×10^3 CFU/ml in the incubation mixture.
Microbicidal activity of each peptide was determined by incubating 2×10^6 CFU/ml with peptides (0.5-12 μg/ml) in 50 μl of 10 mM PIPES buffer containing 5 mM glucose, pH 7.4. […] After 37° C. incubation for 18-48 h, colonies were counted and cell survival was expressed as CFU/ml.

For `CC(C)C[C@@H]1NC(=O)[C@@H]2CSSC[C@H](NC(=O)[C@H](CCCNC(=N)N)NC(=O)[C@@H]3CSSC[C@H](NC1=O)C(=O)N[C@@H](CCCNC(=N)N)C(=O)N[C@@H](CCCNC(=N)N)C(=O)NCC(=O)N[C@@H](C(C)C)C(=O)N3)C(=O)N[C@@H](CC(C)C)C(=O)N[C@H]1CSSC[C@H](NC(=O)[C@H](C(C)C)NC(=O)CNC(=O)[C@H](CCCNC(=N)N)NC(=O)[C@H](CCCNC(=N)N)NC1=O)C(=O)N[C@@H](CCCNC(=N)N)C(=O)N2` [RTD-3] (cyclo(CLCRRGVCRCLCRRGVCR); disulfide 1-10, 3-8, 12-17), the “MMC, S. aureus” value (S. aureus 502a) was 1.0 µg/mL, the “reduction of ONPG hydrolysis by purified β-galactosidase” value [1] was 50% and the “MMC, C. albicans” value (C. albicans 16820) was 1.0 µg/mL. The “MMC, range over the test organisms” value ([2]; S. aureus, E. coli and C. albicans, 10 mM PIPES, 5 mM glucose, pH 7.4) was 1 to 2 µg/mL, the M ([2]; peptide concentration that kill 99.9% of either S. aureus, E. coli, or C. albicans, lowest MMC value) was 1 µg/mL and the ONPG hydrolysis (E. coli ML35 [3]) was 9.2 (A405/sec) · 10^−5. The “MMC, E. coli” value (E. coli ML35 [4]) was 2.0 µg/mL, the “fold less active than RTD-1 and RTD-2 against E. coli” value (E. coli ML35 [5]) was 2- to 3 fold and the “amount of peptide required to achieve the microbicidal effect of RTD-1 and 2” value (E. coli ML35 [6]; killing of E. coli, 2 h) was “approximately twice as much of the peptide was required”. The “activity against E. coli compared with RTD-1 and -2” value (E. coli ML35 [6]; longer incubation times (4 or 6 h)) was “nearly equivalent”.

Reference: patent publication US7462598B2, “Antimicrobial theta defensins, analogs thereof, and methods of use” (priority 2002, dated 2008)
